How the values were obtained:
PIK3CD (Human) [1] = biological target: PIK3CD (Human) (UniProt O00329)
PIK3CD (Human) [2] = biological target: PIK3CD (Human) (UniProt O00329); experiment: Assessment of PIK3CD Kinase Activity (Scintillation Proximity Assay)

Sequence of PIK3CD (Human) (O00329 whole entry, looked up): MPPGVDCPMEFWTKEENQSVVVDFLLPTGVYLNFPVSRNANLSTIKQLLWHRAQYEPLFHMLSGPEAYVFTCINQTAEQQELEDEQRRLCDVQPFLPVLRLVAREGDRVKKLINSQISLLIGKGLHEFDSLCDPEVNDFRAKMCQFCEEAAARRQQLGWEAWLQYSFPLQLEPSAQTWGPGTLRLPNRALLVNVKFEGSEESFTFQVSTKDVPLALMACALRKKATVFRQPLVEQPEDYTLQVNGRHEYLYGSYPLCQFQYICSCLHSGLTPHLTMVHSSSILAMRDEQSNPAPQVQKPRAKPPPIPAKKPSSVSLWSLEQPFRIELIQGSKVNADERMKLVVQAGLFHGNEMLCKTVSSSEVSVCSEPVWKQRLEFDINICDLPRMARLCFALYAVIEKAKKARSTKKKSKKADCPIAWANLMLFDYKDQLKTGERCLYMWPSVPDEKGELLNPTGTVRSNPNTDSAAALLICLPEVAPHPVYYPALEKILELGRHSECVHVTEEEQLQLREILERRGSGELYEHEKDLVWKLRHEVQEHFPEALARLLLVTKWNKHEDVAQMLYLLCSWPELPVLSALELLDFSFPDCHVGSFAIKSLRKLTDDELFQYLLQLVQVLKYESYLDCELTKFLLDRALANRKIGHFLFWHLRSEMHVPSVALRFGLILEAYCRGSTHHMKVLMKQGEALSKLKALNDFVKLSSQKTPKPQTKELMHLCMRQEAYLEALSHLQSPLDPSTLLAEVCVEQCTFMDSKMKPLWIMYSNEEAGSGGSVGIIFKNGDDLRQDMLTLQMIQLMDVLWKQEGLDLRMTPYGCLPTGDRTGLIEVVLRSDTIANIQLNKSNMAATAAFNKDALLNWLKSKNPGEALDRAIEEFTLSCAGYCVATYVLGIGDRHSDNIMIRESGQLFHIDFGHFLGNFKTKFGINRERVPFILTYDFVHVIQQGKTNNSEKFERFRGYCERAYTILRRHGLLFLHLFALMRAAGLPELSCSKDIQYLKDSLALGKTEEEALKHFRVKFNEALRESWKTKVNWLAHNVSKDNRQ

IC50 (PIK3CD (Human) [1])	IC50 (PIK3CD (Human) [2])	SMILES
0.05 to 0.2 µM	–	COc1c([C@@H](C)n2nc(C)c3c(N)ncnc32)cc(Cl)c(C#N)c1C1CN(C[C@@H](C)O)C1
–	≤ 0.01 µM	CCOc1c(C(C)n2nc(C)c3c(N)ncnc32)cc(Cl)c(C#N)c1-c1ccc(C(=O)N(C)C)nc1 (centres undefined)
–	≤ 0.01 µM	CCOc1c(C(C)n2nc(C)c3c(N)ncnc32)cc(Cl)c(F)c1C1COC(=O)N1 (centres undefined)
–	≤ 0.01 µM	CCOc1c(C(C)n2nc(C)c3c(N)ncnc32)cc(Cl)c(C#N)c1C1CN(CC2CCOC2)C1 (centres undefined)
–	≤ 0.01 µM	CCOc1c(C(C)n2nc(C)c3c(N)ncnc32)cc(Cl)c(C#N)c1C1CN(S(=O)(=O)CC)C1 (centres undefined)
–	≤ 0.01 µM	CCOc1c(C(C)n2nc(C)c3c(N)ncnc32)cc(Cl)c(C#N)c1-c1cncc(-c2ncco2)c1 (centres undefined)
–	≤ 0.01 µM	COc1c(C(C)n2nc(C)c3c(N)ncnc32)cc(Cl)c(Cl)c1C1CN(C2COC2)C1 (centres undefined)
–	≤ 0.01 µM	CCOc1c(C(C)n2nc(C)c3c(N)ncnc32)cc(Cl)c(C#N)c1C1CNC(=O)C1 (centres undefined)
–	≤ 0.01 µM	CCOC(=O)N1CC(c2c(C#N)c(Cl)cc(C(C)n3nc(C)c4c(N)ncnc43)c2OC)C1 (centres undefined)
–	≤ 0.01 µM	COc1c(C(C)n2nc(C)c3c(N)ncnc32)cc(C)c(C#N)c1C1CN(CC(C)(C)O)C1 (centres undefined)
–	≤ 0.01 µM	COc1c(C(C)n2nc(C)c3c(N)ncnc32)cc(Cl)c(C#N)c1C1CN(S(=O)(=O)C(C)C)C1 (centres undefined)
–	0.01 to 0.05 µM	CCOc1c(C(C)n2nc(-c3ccc(C(=O)N(C)C)nc3)c3c(N)ncnc32)cc(Cl)c(C)c1-c1ccc(C(=O)N(C)C)nc1 (centres undefined)
–	≤ 0.01 µM	CCOc1c(C(C)n2nc(C)c3c(N)ncnc32)cc(Cl)c(F)c1C1CN(CC(N)=O)C1 (centres undefined)
–	≤ 0.01 µM	CCOc1c(C(C)n2nc(C)c3c(N)ncnc32)cc(Cl)c(C)c1-c1ccc(C(=O)NC)nc1 (centres undefined)
–	≤ 0.01 µM	CCC(=O)N1CC(c2c(C#N)c(Cl)cc(C(C)n3nc(C)c4c(N)ncnc43)c2OC)C1 (centres undefined)
–	≤ 0.01 µM	COc1c(C(C)n2nc(C)c3c(N)ncnc32)cc(Cl)c(C)c1C1CN(C(=O)c2cnn(C)c2)C1 (centres undefined)
–	≤ 0.01 µM	CCOc1c(C(C)n2nc(C)c3c(N)ncnc32)cc(Cl)c(C#N)c1C1CCOC1 (centres undefined)
–	≤ 0.01 µM	CNC(=O)[C@H](C)N1CC(c2c(C)c(C#N)cc(C(C)n3nc(C(F)F)c4c(N)ncnc43)c2OC)C1 (some centres undefined)
–	≤ 0.01 µM	COc1c(C(C)n2nc(C)c3c(N)ncnc32)cc(Cl)c(C#N)c1C1CN(CC2CCOC2)C1 (centres undefined)
–	≤ 0.01 µM	COc1c(C(C)n2nc(C)c3c(N)ncnc32)cc(Cl)c(F)c1C1CN(C[C@H](C)O)C1 (some centres undefined)
–	≤ 0.01 µM	COc1c(C(C)n2nc(C)c3c(N)ncnc32)cc(Cl)c(C#N)c1C1CN(C(=O)NC(C)(C)C)C1 (centres undefined)

IC50 (PIK3CD (Human) [1])	IC50 (PIK3CD (Human) [2])	SMILES
–	≤ 0.01 µM	COc1c(C(C)n2ccc(=O)c3c(N)ncnc32)cc(Cl)c(C)c1-c1cccc(S(=O)(=O)N(C)C)c1 (centres undefined)
–	≤ 0.01 µM	CCOc1c(C(C)n2nc(C)c3c(N)ncnc32)cc(Cl)c(C#N)c1C1CN(CC(C)(C)O)C1 (centres undefined)
–	≤ 0.01 µM	COc1c(C(C)n2nc(C)c3c(N)ncnc32)cc(Cl)c(F)c1C1CN(C[C@@H](C)O)C1 (some centres undefined)
–	≤ 0.01 µM	CCOc1c(C(C)n2nc(C)c3c(N)ncnc32)cc(C)c(C#N)c1C1CN(C(C)C)C1 (centres undefined)
–	≤ 0.01 µM	COc1c(C(C)n2ccc(=O)c3c(N)ncnc32)cc(Cl)c(C)c1-c1cccc(C(=O)N(C)C)c1 (centres undefined)
–	≤ 0.01 µM	CCOc1c(C(C)n2nc(C)c3c(N)ncnc32)cc(Cl)c(C#N)c1C1CN(S(=O)(=O)C(C)C)C1 (centres undefined)
–	≤ 0.01 µM	CCOc1c(C(C)n2nc(C)c3c(N)ncnc32)cc(Cl)c(C)c1-c1cnn(CC(=O)N(C)C)c1 (centres undefined)
–	≤ 0.01 µM	COc1c(C(C)n2nc(C(F)F)c3c(N)ncnc32)cc(Cl)c(F)c1C1CN(C(C)C)C1 (centres undefined)
–	≤ 0.01 µM	CCOc1c(C(C)n2nc(C)c3c(N)ncnc32)cc(Cl)c(F)c1C1CN(CC(F)(F)F)C1 (centres undefined)
–	≤ 0.01 µM	COc1c(C(C)n2nc(C)c3c(N)ncnc32)cc(Cl)c(C#N)c1-c1ccc(C(=O)N(C)C)nc1 (centres undefined)
–	≤ 0.01 µM	CNC(=O)c1ccc(-c2c(C)c(Cl)cc(C(C)n3ccc(=O)c4c(N)ncnc43)c2OC)cn1 (centres undefined)
–	≤ 0.01 µM	COc1c(C(C)n2nc(C)c3c(N)ncnc32)cc(Cl)c(C)c1C1CN(C(=O)c2cn[nH]c2)C1 (centres undefined)
–	≤ 0.01 µM	COc1c(C(C)n2nc(C)c3c(N)ncnc32)cc(Cl)c(C#N)c1C1CN(C(C)CO)C1 (centres undefined)
–	≤ 0.01 µM	CCOc1c(C(C)n2nc(C)c3c(N)ncnc32)cc(Cl)c(F)c1C1CN(C[C@@H](C)O)C1 (some centres undefined)
–	≤ 0.01 µM	CCOc1c(C(C)n2nc(C(F)F)c3c(N)ncnc32)cc(Cl)c(F)c1C1CN(CCO)C1 (centres undefined)
–	≤ 0.01 µM	CCOc1c(C(C)n2nc(C)c3c(N)ncnc32)cc(Cl)c(C#N)c1-c1ccc(-c2cnn(C)n2)nc1 (centres undefined)
–	≤ 0.01 µM	CCOc1c(C(C)n2nc(-c3cc[nH]n3)c3c(N)ncnc32)cc(Cl)c(C)c1-c1ccc(C(=O)N(C)C)nc1 (centres undefined)
–	≤ 0.01 µM	CCOc1c(C(C)n2nc(C)c3c(N)ncnc32)cc(Cl)c(C#N)c1C1CN(C2CCOCC2)C1 (centres undefined)
–	≤ 0.01 µM	CCOc1c(C(C)n2nc(C)c3c(N)ncnc32)cc(Cl)c(C#N)c1-c1ccc(C(C)(C)O)nc1 (centres undefined)
–	≤ 0.01 µM	CCOc1c(C(C)n2nc(C)c3c(N)ncnc32)cc(Cl)c(C#N)c1C1CN(C(=O)CC)C1 (centres undefined)
–	≤ 0.01 µM	COc1c(C(C)n2nc(C)c3c(N)ncnc32)cc(Cl)c(C)c1C1CN([C@@H](C)C(O)N(C)C)C1 (some centres undefined)

IC50 (PIK3CD (Human) [1])	IC50 (PIK3CD (Human) [2])	SMILES
–	≤ 0.01 µM	CCOc1c(C(C)n2nc(C)c3c(N)ncnc32)cc(Cl)c(C#N)c1C1CN(C(=O)NC(C)(C)C)C1 (centres undefined)
–	≤ 0.01 µM	COc1c(C(C)n2nc(C)c3c(N)ncnc32)cc(Cl)c(C#N)c1C1CN(C(N)=O)C1 (centres undefined)
–	≤ 0.01 µM	COc1c(C(C)n2nc(C)c3c(N)ncnc32)cc(Cl)c(C)c1C1CN(C)C1 (centres undefined)
–	≤ 0.01 µM	COc1c(C(C)n2nc(C)c3c(N)ncnc32)cc(Cl)c(F)c1C1CN(C)C1 (centres undefined)
–	≤ 0.01 µM	CCOc1c(C(C)n2nc(C(F)F)c3c(N)ncnc32)cc(Cl)c(F)c1C1CN(C[C@@H](C)O)C1 (some centres undefined)
–	≤ 0.01 µM	COc1c(C(C)n2ccc(=O)c3c(N)ncnc32)cc(Cl)c(C)c1-c1ccc(C(=O)N(C)C)nc1 (centres undefined)
–	≤ 0.01 µM	COc1c(C(C)n2nc(C(F)F)c3c(N)ncnc32)cc(C#N)c(C)c1C1CN(C[C@H](C)O)C1 (some centres undefined)
–	≤ 0.01 µM	COc1c(C(C)n2nc(C)c3c(N)ncnc32)cc(Cl)c(C#N)c1C1CN(C(C)C)C1 (centres undefined)
–	≤ 0.01 µM	CNC(=O)c1cc(-c2c(C)c(Cl)cc(C(C)n3nc(C)c4c(N)ncnc43)c2OC)ccn1 (centres undefined)
–	≤ 0.01 µM	CCNC(=O)c1c(C)c(Cl)cc(C(C)n2nc(C)c3c(N)ncnc32)c1-c1cc(F)cc(F)c1 (centres undefined)
–	≤ 0.01 µM	COc1c(C(C)n2nc(C)c3c(N)ncnc32)cc(Cl)c(C#N)c1C1CN(C(=O)C(C)C)C1 (centres undefined)
–	≤ 0.01 µM	CCOc1c(C(C)n2nc(C)c3c(N)ncnc32)cc(Cl)c(C#N)c1C1CN(C(=O)C2CC2)C1 (centres undefined)
–	≤ 0.01 µM	CCOc1c(C(C)n2nc(C(F)F)c3c(N)ncnc32)cc(Cl)c(C)c1-c1ccc(C(=O)N(C)C)nc1 (centres undefined)
–	≤ 0.01 µM	CCOc1c(C(C)n2nc(C)c3c(N)ncnc32)cc(Cl)c(C#N)c1C1CNC1 (centres undefined)
–	≤ 0.01 µM	CCN1CC(c2c(C#N)c(Cl)cc(C(C)n3nc(C)c4c(N)ncnc43)c2OC)C1 (centres undefined)
–	≤ 0.01 µM	CCOc1c(C(C)n2nc(C)c3c(N)ncnc32)cc(Cl)c(F)c1C1CN(CCO)C1 (centres undefined)
–	≤ 0.01 µM	COc1c(C(C)n2nc(C)c3c(N)ncnc32)cc(Cl)c(C)c1-c1cnc(N)nc1 (centres undefined)
–	≤ 0.01 µM	COc1c(C(C)n2nc(C)c3c(N)ncnc32)cc(Cl)c(C)c1C1CN(C[C@H](O)C(F)(F)F)C1 (some centres undefined)
–	≤ 0.01 µM	CCOc1c(C(C)n2nc(C)c3c(N)ncnc32)cc(Cl)c(C#N)c1C1CN(CC(F)(F)F)C1 (centres undefined)
–	≤ 0.01 µM	CCOc1c(C(C)n2nc(C)c3c(N)ncnc32)cc(Cl)c(C)c1C1CN(C(C)C)C1 (centres undefined)

SMILES	IC50 (PIK3CD (Human) [1])	IC50 (PIK3CD (Human) [2])
COc1c(C(C)n2nc(C(F)F)c3c(N)ncnc32)cc(C#N)c(C)c1C1CN(CC(F)F)C1 (centres undefined)	–	≤ 0.01 µM
CCOc1c(C(C)n2nc(C)c3c(N)ncnc32)cc(Cl)c(C#N)c1-c1ccc(C2=[N+][N+]=C(C)O2)nc1 (centres undefined)	–	≤ 0.01 µM
